Molecules are shown by their SMILES.

The data set is described as follows: Stability of formulations containing retinol, ascorbic acid and/or tocopherol, HPLC assay. Format: physicochemical. From the text:
The stability of different formulations containing retinol, ascorbic acid and/or tocopherol as set forth in Examples 7 and 8 below were monitored in terms of appearance and HPLC assay. The degraded products of retinol, ascorbic acid or tocopherol are yellow or brownish in color. The freshly prepared samples were white creams. Discoloration to yellow or brown indicates the instability.

Turning to `CC(=O)N[C@@H](CS)C(=O)O` [N-acetlcysteine, N-acetylcysteine], the “Effect of addition on the stability of retinol and tocopherol” value was “slightly enhances”.

Take `O=C1O[C@H]([C@@H](O)CO)C(O)=C1O` [ascorbic acid]: the “Effect on stability of tocopherol” value is “assists in stabilizing tocopherol”.

The record behind these values is patent publication US20040242463A1, “Compositions for stabilizing oxygen-labile species” (priority 1999, published 2004).
